How the values were obtained:
Assay in all cases: biochemical
Type in all cases: biochemical
[1] = molecular target: 363 human kinases (including Aurora A/B/C) (Homo sapiens, UniProt Q00537); conditions: CDK17/cyclin Y (PCTK2), [ATP] 50 µM; for remaining activity at 0.1 µM: 100 nM; for remaining activity at 0.1 µM / remaining activity at 0.5 µM: read-out: % Enzyme Activity (relative to DMSO controls)
From the text: (§1) However, the Aurora A/B selectivity ratios derived from our in vitro and in vivo data can be compared to prioritize inhibitors.

[2] = molecular target: 363 human kinases (including Aurora A/B/C) (Homo sapiens, UniProt Q9NYL2); conditions: ZAK/MLTK; for remaining activity at 0.1 µM: 100 nM; for remaining activity at 0.1 µM / remaining activity at 0.5 µM: read-out: % Enzyme Activity (relative to DMSO controls)
Chain of 363 human kinases (including Aurora A/B/C) (Homo sapiens, UniProt Q9NYL2) (Q9NYL2 whole entry): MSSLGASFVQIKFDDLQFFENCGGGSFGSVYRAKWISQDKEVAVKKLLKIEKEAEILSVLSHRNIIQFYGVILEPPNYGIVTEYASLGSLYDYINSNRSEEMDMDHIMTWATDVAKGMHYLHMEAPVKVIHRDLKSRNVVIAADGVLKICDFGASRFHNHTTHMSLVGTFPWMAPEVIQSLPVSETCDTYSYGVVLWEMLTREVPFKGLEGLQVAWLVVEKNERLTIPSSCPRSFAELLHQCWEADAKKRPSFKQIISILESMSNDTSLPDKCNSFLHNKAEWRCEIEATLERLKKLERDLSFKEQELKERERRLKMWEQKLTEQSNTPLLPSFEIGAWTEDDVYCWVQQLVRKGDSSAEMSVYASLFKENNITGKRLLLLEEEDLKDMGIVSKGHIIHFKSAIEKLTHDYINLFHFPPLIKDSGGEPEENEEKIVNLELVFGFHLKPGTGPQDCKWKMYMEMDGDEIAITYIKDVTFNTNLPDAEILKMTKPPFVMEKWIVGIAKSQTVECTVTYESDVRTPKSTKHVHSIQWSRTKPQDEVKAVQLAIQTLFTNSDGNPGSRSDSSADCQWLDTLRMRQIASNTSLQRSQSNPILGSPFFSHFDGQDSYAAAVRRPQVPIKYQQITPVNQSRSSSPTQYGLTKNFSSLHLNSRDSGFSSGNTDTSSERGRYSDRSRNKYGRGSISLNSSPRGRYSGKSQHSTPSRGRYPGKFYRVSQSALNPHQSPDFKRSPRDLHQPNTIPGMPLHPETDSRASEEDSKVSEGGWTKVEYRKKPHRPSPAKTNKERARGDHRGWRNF
From the text: as §1

[3] = molecular target: 363 human kinases (including Aurora A/B/C) (Homo sapiens, UniProt Q9H2X6); conditions: HIPK2; for remaining activity at 0.1 µM: 100 nM; for remaining activity at 0.1 µM / remaining activity at 0.5 µM: read-out: % Enzyme Activity (relative to DMSO controls)
Chain of 363 human kinases (including Aurora A/B/C) (Homo sapiens, UniProt Q9H2X6) (Q9H2X6 whole entry): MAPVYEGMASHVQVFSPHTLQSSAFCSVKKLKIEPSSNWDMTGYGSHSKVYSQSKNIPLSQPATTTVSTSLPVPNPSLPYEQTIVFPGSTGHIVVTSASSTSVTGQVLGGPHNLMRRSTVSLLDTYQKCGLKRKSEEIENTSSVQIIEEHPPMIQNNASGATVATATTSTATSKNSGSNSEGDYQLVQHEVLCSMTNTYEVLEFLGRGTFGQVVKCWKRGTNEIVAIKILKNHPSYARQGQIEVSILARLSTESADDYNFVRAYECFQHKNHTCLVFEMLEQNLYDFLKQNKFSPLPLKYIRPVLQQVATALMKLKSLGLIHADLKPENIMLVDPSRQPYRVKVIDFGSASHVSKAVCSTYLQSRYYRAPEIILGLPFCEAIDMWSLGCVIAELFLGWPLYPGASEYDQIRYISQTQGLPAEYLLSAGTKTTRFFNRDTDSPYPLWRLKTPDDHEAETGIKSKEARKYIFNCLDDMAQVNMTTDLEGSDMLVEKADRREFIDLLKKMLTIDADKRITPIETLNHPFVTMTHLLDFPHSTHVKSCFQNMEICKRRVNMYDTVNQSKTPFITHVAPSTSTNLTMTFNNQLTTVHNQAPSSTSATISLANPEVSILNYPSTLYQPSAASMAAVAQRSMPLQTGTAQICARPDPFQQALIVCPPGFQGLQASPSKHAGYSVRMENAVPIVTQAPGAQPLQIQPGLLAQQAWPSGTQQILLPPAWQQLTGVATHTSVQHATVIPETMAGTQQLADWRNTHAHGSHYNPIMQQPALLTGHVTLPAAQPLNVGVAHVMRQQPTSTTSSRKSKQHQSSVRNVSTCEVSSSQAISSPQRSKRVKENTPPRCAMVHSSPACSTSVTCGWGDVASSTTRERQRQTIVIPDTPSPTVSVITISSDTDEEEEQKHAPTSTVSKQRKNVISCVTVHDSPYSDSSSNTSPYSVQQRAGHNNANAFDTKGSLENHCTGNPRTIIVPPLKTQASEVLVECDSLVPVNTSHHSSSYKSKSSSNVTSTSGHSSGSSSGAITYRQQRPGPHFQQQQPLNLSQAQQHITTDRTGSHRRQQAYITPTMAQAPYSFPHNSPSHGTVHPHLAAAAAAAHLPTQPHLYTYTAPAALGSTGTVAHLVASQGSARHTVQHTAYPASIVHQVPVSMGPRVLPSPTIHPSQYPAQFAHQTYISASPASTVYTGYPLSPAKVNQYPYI
From the text: as §1

[4] = molecular target: T1, 363 human kinases (including Aurora A/B/C) (Homo sapiens, UniProt P29323); conditions: EPHB2, [ATP] 30 µM; for remaining activity at 0.1 µM: 100 nM; for remaining activity at 0.1 µM / remaining activity at 0.5 µM: read-out: % Enzyme Activity (relative to DMSO controls)
T1 sequence (P29323 19-1055): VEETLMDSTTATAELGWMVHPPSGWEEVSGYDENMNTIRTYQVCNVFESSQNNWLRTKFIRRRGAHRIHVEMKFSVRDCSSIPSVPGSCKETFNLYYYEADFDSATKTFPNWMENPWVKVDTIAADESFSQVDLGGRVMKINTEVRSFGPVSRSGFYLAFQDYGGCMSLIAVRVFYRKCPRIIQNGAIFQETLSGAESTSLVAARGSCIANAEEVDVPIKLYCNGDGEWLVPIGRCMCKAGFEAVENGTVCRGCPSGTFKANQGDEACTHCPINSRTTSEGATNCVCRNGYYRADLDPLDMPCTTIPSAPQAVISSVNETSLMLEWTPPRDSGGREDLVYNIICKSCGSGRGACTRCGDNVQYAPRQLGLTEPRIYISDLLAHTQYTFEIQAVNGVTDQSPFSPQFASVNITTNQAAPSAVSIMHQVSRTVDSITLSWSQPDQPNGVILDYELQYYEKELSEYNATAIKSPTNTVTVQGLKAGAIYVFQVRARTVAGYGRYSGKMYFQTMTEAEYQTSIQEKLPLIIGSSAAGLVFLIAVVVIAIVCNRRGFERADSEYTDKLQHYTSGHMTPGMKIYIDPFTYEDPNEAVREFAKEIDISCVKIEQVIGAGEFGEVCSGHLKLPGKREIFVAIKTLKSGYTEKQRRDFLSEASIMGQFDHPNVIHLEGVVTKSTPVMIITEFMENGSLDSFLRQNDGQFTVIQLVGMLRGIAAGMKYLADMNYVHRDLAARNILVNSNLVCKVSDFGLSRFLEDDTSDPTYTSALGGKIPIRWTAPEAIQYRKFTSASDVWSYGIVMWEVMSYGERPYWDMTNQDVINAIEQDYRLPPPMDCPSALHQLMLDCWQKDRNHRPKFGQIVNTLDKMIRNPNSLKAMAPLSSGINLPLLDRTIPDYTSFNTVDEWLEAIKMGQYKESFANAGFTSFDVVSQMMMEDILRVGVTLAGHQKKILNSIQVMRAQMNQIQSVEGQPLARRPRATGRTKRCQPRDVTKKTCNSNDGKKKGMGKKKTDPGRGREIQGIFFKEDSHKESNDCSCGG
From the text: as §1

[5] = molecular target: 363 human kinases (including Aurora A/B/C) (Homo sapiens, UniProt P23443); conditions: p70S6K/RPS6KB1; for remaining activity at 0.1 µM: 100 nM; for remaining activity at 0.1 µM / remaining activity at 0.5 µM: read-out: % Enzyme Activity (relative to DMSO controls)
Chain of 363 human kinases (including Aurora A/B/C) (Homo sapiens, UniProt P23443) (P23443 whole entry): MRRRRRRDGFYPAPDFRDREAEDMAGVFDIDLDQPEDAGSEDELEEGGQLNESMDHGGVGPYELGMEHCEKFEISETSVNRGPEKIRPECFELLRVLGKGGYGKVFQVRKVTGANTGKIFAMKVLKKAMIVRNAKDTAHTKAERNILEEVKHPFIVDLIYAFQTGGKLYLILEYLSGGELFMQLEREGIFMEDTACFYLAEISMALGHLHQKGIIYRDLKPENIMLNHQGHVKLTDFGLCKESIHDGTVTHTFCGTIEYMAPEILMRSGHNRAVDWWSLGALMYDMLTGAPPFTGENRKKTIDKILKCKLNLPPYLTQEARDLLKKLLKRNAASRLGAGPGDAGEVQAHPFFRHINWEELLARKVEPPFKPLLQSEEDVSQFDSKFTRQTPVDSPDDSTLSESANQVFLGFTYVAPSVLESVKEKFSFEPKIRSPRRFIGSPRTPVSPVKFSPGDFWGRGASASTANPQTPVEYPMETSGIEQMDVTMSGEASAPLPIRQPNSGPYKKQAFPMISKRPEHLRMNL
From the text: as §1

[6] = molecular target: 363 human kinases (including Aurora A/B/C) (Homo sapiens, UniProt O00311); conditions: CDC7/DBF4, [ATP] 15 µM; for remaining activity at 0.1 µM: 100 nM; for remaining activity at 0.1 µM / remaining activity at 0.5 µM: read-out: % Enzyme Activity (relative to DMSO controls)
Chain of 363 human kinases (including Aurora A/B/C) (Homo sapiens, UniProt O00311) (O00311 whole entry): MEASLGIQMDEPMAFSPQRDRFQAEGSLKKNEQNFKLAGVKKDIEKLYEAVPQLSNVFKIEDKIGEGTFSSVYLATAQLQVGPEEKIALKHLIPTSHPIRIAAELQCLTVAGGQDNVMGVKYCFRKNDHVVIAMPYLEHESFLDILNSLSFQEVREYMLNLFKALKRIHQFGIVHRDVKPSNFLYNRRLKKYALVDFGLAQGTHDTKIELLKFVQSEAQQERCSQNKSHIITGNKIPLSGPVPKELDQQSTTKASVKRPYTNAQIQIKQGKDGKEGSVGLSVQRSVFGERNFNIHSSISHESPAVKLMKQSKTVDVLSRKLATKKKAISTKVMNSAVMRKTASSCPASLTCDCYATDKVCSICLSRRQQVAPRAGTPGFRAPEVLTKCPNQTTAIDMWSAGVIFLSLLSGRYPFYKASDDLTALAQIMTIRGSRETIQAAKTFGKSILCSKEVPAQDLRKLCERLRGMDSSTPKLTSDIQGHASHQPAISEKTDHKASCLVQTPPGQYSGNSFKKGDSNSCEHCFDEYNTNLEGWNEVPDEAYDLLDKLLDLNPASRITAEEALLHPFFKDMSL
From the text: as §1

[7] = molecular target: 363 human kinases (including Aurora A/B/C) (Homo sapiens, UniProt P78362); conditions: SRPK2; for remaining activity at 0.1 µM: 100 nM; for remaining activity at 0.1 µM / remaining activity at 0.5 µM: read-out: % Enzyme Activity (relative to DMSO controls)
Chain of 363 human kinases (including Aurora A/B/C) (Homo sapiens, UniProt P78362) (P78362 whole entry): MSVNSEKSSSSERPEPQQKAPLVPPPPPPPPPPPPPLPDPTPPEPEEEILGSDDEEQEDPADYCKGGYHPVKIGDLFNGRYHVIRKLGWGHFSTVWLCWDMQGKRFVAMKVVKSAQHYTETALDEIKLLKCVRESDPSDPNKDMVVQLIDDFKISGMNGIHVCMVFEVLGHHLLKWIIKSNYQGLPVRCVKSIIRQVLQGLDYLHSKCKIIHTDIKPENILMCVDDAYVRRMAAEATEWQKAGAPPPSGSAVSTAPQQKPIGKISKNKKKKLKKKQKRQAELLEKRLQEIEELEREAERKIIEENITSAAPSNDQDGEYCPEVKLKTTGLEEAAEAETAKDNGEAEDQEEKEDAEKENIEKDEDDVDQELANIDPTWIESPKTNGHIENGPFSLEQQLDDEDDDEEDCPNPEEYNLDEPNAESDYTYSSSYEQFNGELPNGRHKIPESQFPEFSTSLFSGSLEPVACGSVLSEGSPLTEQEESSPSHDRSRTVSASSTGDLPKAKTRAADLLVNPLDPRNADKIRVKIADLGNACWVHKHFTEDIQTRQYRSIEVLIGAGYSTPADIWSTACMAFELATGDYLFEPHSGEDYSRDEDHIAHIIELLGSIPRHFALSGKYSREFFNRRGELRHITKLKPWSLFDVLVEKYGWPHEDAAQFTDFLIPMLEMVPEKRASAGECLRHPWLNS
From the text: as §1

[8] = molecular target: 363 human kinases (including Aurora A/B/C) (Homo sapiens, UniProt Q15303); conditions: ERBB4/HER4, [ATP] 2.5 µM; for remaining activity at 0.1 µM: 100 nM; for remaining activity at 0.1 µM / remaining activity at 0.5 µM: read-out: % Enzyme Activity (relative to DMSO controls)
From the text: as §1

[9] = molecular target: T2, 363 human kinases (including Aurora A/B/C) (Homo sapiens, UniProt Q9UPZ9); conditions: LCK2/ICK; for remaining activity at 0.1 µM: 100 nM; for remaining activity at 0.1 µM / remaining activity at 0.5 µM: read-out: % Enzyme Activity (relative to DMSO controls)
T2 sequence (Q9UPZ9 1-632): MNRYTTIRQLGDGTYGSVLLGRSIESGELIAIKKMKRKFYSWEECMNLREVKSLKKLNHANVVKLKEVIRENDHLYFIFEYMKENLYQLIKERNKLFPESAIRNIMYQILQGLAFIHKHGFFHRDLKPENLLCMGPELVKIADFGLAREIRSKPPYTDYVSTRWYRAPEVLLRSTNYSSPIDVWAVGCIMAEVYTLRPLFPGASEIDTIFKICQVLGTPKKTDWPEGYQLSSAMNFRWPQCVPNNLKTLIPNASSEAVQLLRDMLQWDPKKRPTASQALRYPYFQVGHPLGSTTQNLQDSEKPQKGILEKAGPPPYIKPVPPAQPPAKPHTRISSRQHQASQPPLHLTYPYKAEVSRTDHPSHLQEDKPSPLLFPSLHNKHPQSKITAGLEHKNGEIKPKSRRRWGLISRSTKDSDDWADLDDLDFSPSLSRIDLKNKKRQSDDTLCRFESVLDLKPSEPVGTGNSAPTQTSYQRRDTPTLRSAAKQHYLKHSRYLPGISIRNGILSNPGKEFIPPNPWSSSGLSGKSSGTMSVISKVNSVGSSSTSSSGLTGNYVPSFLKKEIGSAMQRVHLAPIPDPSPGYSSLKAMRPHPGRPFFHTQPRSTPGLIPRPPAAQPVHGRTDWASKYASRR
From the text: as §1

[10] = molecular target: 363 human kinases (including Aurora A/B/C) (Homo sapiens, UniProt Q9BUB5); conditions: MNK1; for remaining activity at 0.1 µM: 100 nM; for remaining activity at 0.1 µM / remaining activity at 0.5 µM: read-out: % Enzyme Activity (relative to DMSO controls)
Chain of 363 human kinases (including Aurora A/B/C) (Homo sapiens, UniProt Q9BUB5) (Q9BUB5 whole entry): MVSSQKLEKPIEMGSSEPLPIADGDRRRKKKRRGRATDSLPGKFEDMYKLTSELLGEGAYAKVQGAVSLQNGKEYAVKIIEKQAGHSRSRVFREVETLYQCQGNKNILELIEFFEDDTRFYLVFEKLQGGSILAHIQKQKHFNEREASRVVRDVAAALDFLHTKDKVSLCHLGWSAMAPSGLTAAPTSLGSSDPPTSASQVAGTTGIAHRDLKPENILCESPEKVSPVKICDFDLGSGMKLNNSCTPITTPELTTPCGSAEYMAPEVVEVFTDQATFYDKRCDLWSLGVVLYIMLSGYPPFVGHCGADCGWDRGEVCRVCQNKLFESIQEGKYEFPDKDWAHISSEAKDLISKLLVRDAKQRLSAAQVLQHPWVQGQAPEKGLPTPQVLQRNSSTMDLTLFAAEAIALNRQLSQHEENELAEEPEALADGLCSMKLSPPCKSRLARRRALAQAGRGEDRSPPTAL
From the text: as §1

[11] = molecular target: 363 human kinases (including Aurora A/B/C) (Homo sapiens, UniProt Q13554); conditions: CAMK2b, [ATP] 100 µM; for remaining activity at 0.1 µM: 100 nM; for remaining activity at 0.1 µM / remaining activity at 0.5 µM: read-out: % Enzyme Activity (relative to DMSO controls)
Chain of 363 human kinases (including Aurora A/B/C) (Homo sapiens, UniProt Q13554) (Q13554 whole entry): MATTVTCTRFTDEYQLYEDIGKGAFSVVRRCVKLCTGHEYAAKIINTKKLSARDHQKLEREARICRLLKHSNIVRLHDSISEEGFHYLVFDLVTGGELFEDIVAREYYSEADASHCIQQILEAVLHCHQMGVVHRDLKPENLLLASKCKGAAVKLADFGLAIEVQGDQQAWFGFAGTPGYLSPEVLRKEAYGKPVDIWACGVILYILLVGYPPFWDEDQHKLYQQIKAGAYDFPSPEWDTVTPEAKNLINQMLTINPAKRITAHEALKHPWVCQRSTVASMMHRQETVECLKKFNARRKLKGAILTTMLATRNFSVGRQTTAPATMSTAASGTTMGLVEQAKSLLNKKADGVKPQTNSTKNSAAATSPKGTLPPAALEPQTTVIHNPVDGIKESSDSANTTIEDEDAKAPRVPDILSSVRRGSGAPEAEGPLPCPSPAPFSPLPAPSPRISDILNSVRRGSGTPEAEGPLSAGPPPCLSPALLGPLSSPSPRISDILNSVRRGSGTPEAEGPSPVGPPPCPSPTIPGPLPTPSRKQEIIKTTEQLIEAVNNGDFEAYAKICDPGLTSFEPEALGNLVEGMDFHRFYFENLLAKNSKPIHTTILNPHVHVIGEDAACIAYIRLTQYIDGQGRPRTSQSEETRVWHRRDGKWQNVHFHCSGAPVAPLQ
From the text: as §1

Row | Compound | remaining activity at 0.1 µM [1] | remaining activity at 0.1 µM [2] | remaining activity at 0.1 µM [3] | remaining activity at 0.1 µM [4] | remaining activity at 0.1 µM [5] | remaining activity at 0.1 µM [6] | remaining activity at 0.1 µM [7] | remaining activity at 0.1 µM [8] | remaining activity at 0.1 µM [9] | remaining activity at 0.1 µM [10] | remaining activity at 0.1 µM [11] | remaining activity at 0.5 µM ([1]; 500 nM) | remaining activity at 0.5 µM ([2]; 500 nM) | remaining activity at 0.5 µM ([3]; 500 nM) | remaining activity at 0.5 µM ([4]; 500 nM) | remaining activity at 0.5 µM ([5]; 500 nM) | remaining activity at 0.5 µM ([6]; 500 nM) | remaining activity at 0.5 µM ([7]; 500 nM) | remaining activity at 0.5 µM ([8]; 500 nM) | remaining activity at 0.5 µM ([9]; 500 nM) | further results
1 | CCn1cc(-c2ccnc3[nH]c(-c4cccc(CN(C)C)c4)cc23)c(-c2ccc(NC(=O)N(C)C)cc2)n1 [GSK1070916] | 90.9% | 101% | 104% | 97.1% | 101% | 95.4% | 96.5% | 87.3% | 97.6% | 113% | 101% | – | – | – | – | – | – | – | – | – | –
2 | O=C(c1cccc(Cl)c1F)N1CCN(Cc2cccc(Nc3nccs3)n2)CC1 [MK-8745] | – | – | – | – | – | – | – | – | – | – | – | 87% | 91.9% | 106% | 81.8% | 100% | 103% | 99.7% | 94.9% | 93% | % Enzyme Activity (relative to DMSO controls) ([1]; 500 nM): 86.82%; % Enzyme Activity (relative to DMSO controls) ([2]; 500 nM): 91.42%; % Enzyme Activity (relative to DMSO controls) ([3]; 500 nM): 102.33%; % Enzyme Activity (relative to DMSO controls) ([4]; 500 nM): 80.85%; % Enzyme Activity (relative to DMSO controls) ([5]; 500 nM): 99.31%; % Enzyme Activity (relative to DMSO controls) ([6]; 500 nM): 101.19%; % Enzyme Activity (relative to DMSO controls) ([7]; 500 nM): 98.38%; % Enzyme Activity (relative to DMSO controls) ([8]; 500 nM): 93.35%; % Enzyme Activity (relative to DMSO controls) ([9]; 500 nM): 91.96%; % Enzyme Activity (relative to DMSO controls) ([10]; 500 nM): 107.37%; remaining activity at 0.5 µM ([10]; 500 nM): 107%; % Enzyme Activity (relative to DMSO controls) ([11]; 500 nM): 99.72%; remaining activity at 0.5 µM ([11]; 500 nM): 101%
3 | O=C(O)[C@]1(Cc2cccc(Nc3nccs3)n2)CC[C@@H](Oc2cccc(Cl)c2F)CC1 [MK-5108] | 95.4% | 126% | 89.2% | 59.4% | 98.3% | 103% | 95.4% | 97.1% | 99% | 105% | 95.5% | 81.9% | 97.9% | 50% | 32% | 97.7% | 96.2% | 94.3% | 77.7% | 92.3% | remaining activity at 0.5 µM ([10]; 500 nM): 116%; remaining activity at 0.5 µM ([11]; 500 nM): 97.8%

Source: paper PMC4685510, “A Cell Biologist’s Field Guide to Aurora Kinase Inhibitors” (Frontiers in Oncology, 2015)
